The subject of assay [1] is Stx17 phosphorylation (Stx17^pS02) by TBK1. Briefly: Western blot of Stx17 phosphorylation at Ser-202 in HeLa cells. Format: cell-based, human. In general terms: A western blot detects proteins with antibodies after separation by electrophoresis.
The test system of assay [2] is LDH sequestration in autophagosomes, HeLa cells. Briefly: LDH (lactate dehydrogenase) sequestration assay. It is filed as cell-based, human. The note with it: WT HeLa cells, EBSS 2 h in presence of bafilomycin A1; 3-methyladenine 10 mM as positive control (FIG. 7N,O).

On to `CC(=O)N[C@H]1C(O)O[C@H](CO)[C@@H](O)[C@@H]1O[C@H](C)C(=O)N[C@@H](C)C(=O)N[C@H](CCC(=O)O)C(N)=O` (mixture of isomers) [MDP, muramyl-dipeptide], for which the “Stx17^pS02 band response to agonists of TBK1” value in assay [1] (HeLa cells, Western blot (FIG. 8H), band also detectable in resting cells) is on record as “responsive”.
`Cn1cnc(N)c2ncnc1-2` [3MA, 3-methyladenine]: the “LDH (bulk autophagy cargo) sequestration in autophagosomes” value in assay [2] is given as “reduction in cargo sequestration”.
Consider `O=C(NCCCNc1nc(Nc2cccc(NC(=O)N3CCCC3)c2)ncc1I)c1cccs1` [BX795], for which the “Stx17 phosphorylation (Stx17^pS02)” value in assay [1] (cells stimulated with LPS, HeLa WT or TBK1 KO cells, Western blot (FIG. 8I)) is listed as “inhibited Stx17 phosphorylation”. The “baseline Stx17^pS02 levels” value in assay [1] (unstimulated cells, Western blot (FIG. 8I)) is listed as “reduced the low baseline levels”.
